# Test system: 598228-144-R-J1-PDC complex spheroids, viability
# Experiment: Anticancer human tumor 598228-144-R-J1-PDC patient-derived serous endometrial adenocarcinoma cell line growth inhibition [CLK]
# Conditions: for IC50: curve of first compound; for viability, T/C: stronger effect = lower value
# From the text: A high-throughput screen of multi-cell type tumor spheroids was designed to identify active combinations of […] and targeted small molecules. Complex spheroids include a stromal component modeled by human endothelial cells (HUVEC) and fibroblasts modeled by human mesenchymal stem cells (MSCs). The concentration ranges selected for each drug and investigational agent were based upon clinically achievable concentrations if the clinical Cmax of the agent was known.
# Compounds. The drugs and investigational agents: cirtuvivint (SM08502; NSC835563), CC-671 (NSC850746), vemurafenib (NSC761431), tapotoclax (NSC804041), sotorasib (NSC818433), adagrasib (NSC831453), MRTX-1133 (NSC836407), BAY2416964 (NSC825713), copanlisib (NSC816437), inavolisib (NSC800729), abemaciclib (NSC768073), osimertinib (NSC779217), entinostat (NSC756642), eltanexor (KPT-8602, NSC794443), venetoclax (NSC766270), ceralasertib (NSC777638), bortezomib (NSC756655), olaparib (NSC753686), talazoparib (NSC767125), alisertib (NSC759677), peposertib (NSC802822), gemcitabine (NSC613327), 5-fluorouracil (NSC19893), SN-38 (NSC673596), oxaliplatin (NSC266046), paclitaxel (NSC125973), and doxorubicin (NSC123127), were obtained from the National Cancer Institute (NCI) Developmental Therapeutics Program Chemical Repository. The FDA-approved anticancer drug set is available from the Developmental Therapeutics Program at https://dtp.cancer.gov/organization/dscb/obtaining/available plates.htm. […] The stock solutions were prepared in dimethyl sulfoxide (DMSO, Sigma-Aldrich, St. Louis, MO, cat. D2650), except for the platinum complexes which were prepared in saline (Quality Biological, Gaithersburg, MD, cat. 114-055-101), at 800-fold the tested concentration and stored at -70 degrees C prior to their use. All drugs and investigational agents were tested over a range starting from a high concentration at or near the clinical Cmax and decreasing in half-log increments. If the clinical Cmax for an agent had not been determined, the highest concentration tested was 10 microM.
# Cell Culture. All cells were maintained in an incubator at 37 degrees C and 5% CO2 with 95% humidity. The PDC lines were cultured according to standard operating procedures established by the NCI PDMR. Briefly, all PDCs were thawed and cultured in Matrigel-coated flasks prepared with a working solution of 1X Ham's F-12 nutrient mix, without supplementation (Invitrogen, Waltham, MA, cat. 11765054), 100 U/mL penicillin-streptomycin (Invitrogen, cat. 15140122), and 2.5% Matrigel (Corning Inc., Corning, NY, cat. 354248) for the first three passages. The 947758-054-R-J2-PDC line was cultured in 6B/Colon 1A media, which includes advanced DMEM/F-12 (Thermo Fisher Scientific, cat. 12634028), 10 mM HEPES (Thermo Fisher Scientific, cat. 15630080), 1X GlutaMAX supplement (Thermo Fisher Scientific, cat. 35050061), 0.1 mg/mL primocin (InvivoGen, cat. ant-pm-2), 10% defined fetal bovine serum, heat inactivated (HyClone Laboratories Inc., cat. SH30070.03HI), 1.25 mM N-Acetyl-L-cysteine (Sigma-Aldrich, cat. A9165), 10 mM nicotinamide (Sigma-Aldrich, cat. N0636), 1X B-27 supplement (Thermo Fisher Scientific, cat. 17504044), 1X N-2 supplement (Thermo Fisher Scientific, cat. 17502048), and 10 microM Y-27632 dihydrochloride (Tocris Bioscience, cat. 1254). The 876862-298-R-J1-PDC was cultured in 6E media, which includes all 6B/Colon 1A media components plus 50% L-WRN conditioned media (ATCC, cat. CRL-3276), 50 ng/mL recombinant human EGF recombinant protein (hEGF; Thermo Fisher Scientific, cat. PHG0311), 10 ng/mL recombinant human fibroblast growth factor 10 (hGFG-10; PeproTech, cat. 100-26), 1 ng/mL recombinant human fibroblast growth factor 2 (hFGF-2; PeproTech, cat. 100-18B), and 1 µM prostaglandin E2 (PGE2; Tocris, cat. 2296). The 227483-062-R1-J1-PDC line was cultured in Panc media, containing all 6E components except hFGF-2, with the addition of 500 nM SB-431542 (Selleckchem, cat. S1067) and 10 nM gastrin (Tocris, cat. 3006). […]
# 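Further: spheroids exposed to compounds for seven days before readout.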
# 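Wherever viability, T/C is given: 100% = DMSO vehicle control wells.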
compound,measurement,setting,value
CCc1c2c(nc3ccc(O)cc13)-c1cc3c(c(=O)n1C2)COC(=O)[C@]3(O)CC + CN1CCN(c2cc(C(=O)Nc3cc4cc(-c5cnn(C)c5)ccc4cn3)ccn2)CC1,IC50,second compound 0.0316 µM,68.3 nM
same,IC50,second compound 0.1 µM,96 nM
same,IC50,second compound 0.316 µM,< 3.16 nM
same,IC50,second compound 1 µM,< 3.16 nM
same,IC50,second compound 3.16 µM,< 3.16 nM
same,IC50,second compound 10 µM,< 3.16 nM
same,"viability, T/C","second compound 0.0316 µM, first compound 0.00316 µM",104%
same,"viability, T/C","second compound 0.0316 µM, first compound 0.01 µM",91.3%
same,"viability, T/C","second compound 0.0316 µM, first compound 0.0316 µM",73.8%
same,"viability, T/C","second compound 0.0316 µM, first compound 0.1 µM",39.2%
same,"viability, T/C","second compound 0.0316 µM, first compound 0.316 µM",16.6%
same,"viability, T/C","second compound 0.0316 µM, first compound 1 µM",13.1%
same,"viability, T/C","second compound 0.1 µM, first compound 0.00316 µM",152%
same,"viability, T/C","second compound 0.1 µM, first compound 0.01 µM",121%
same,"viability, T/C","second compound 0.1 µM, first compound 0.0316 µM",84%
same,"viability, T/C","second compound 0.1 µM, first compound 0.1 µM",47.4%
same,"viability, T/C","second compound 0.1 µM, first compound 0.316 µM",23.3%
same,"viability, T/C","second compound 0.1 µM, first compound 1 µM",9.49%
same,"viability, T/C","second compound 0.316 µM, first compound 0.00316 µM",17.4%
same,"viability, T/C","second compound 0.316 µM, first compound 0.01 µM",17.4%
same,"viability, T/C","second compound 0.316 µM, first compound 0.0316 µM",18.3%
same,"viability, T/C","second compound 0.316 µM, first compound 0.1 µM",13.1%
same,"viability, T/C","second compound 0.316 µM, first compound 0.316 µM",5.94%
same,"viability, T/C","second compound 0.316 µM, first compound 1 µM",5.35%
same,"viability, T/C","second compound 1 µM, first compound 0.00316 µM",1.34%
same,"viability, T/C","second compound 1 µM, first compound 0.01 µM",0.98%
same,"viability, T/C","second compound 1 µM, first compound 0.0316 µM",2.66%
same,"viability, T/C","second compound 1 µM, first compound 0.1 µM",0.5%
same,"viability, T/C","second compound 1 µM, first compound 0.316 µM",2.92%
same,"viability, T/C","second compound 1 µM, first compound 1 µM",4.75%
same,"viability, T/C","second compound 3.16 µM, first compound 0.00316 µM",1.44%
same,"viability, T/C","second compound 3.16 µM, first compound 0.01 µM",1.88%
same,"viability, T/C","second compound 3.16 µM, first compound 0.0316 µM",0.95%
same,"viability, T/C","second compound 3.16 µM, first compound 0.1 µM",1.2%
same,"viability, T/C","second compound 3.16 µM, first compound 0.316 µM",2.83%
same,"viability, T/C","second compound 3.16 µM, first compound 1 µM",4.75%
same,"viability, T/C","second compound 10 µM, first compound 0.00316 µM",0.83%
same,"viability, T/C","second compound 10 µM, first compound 0.01 µM",0.62%
same,"viability, T/C","second compound 10 µM, first compound 0.0316 µM",2.12%
same,"viability, T/C","second compound 10 µM, first compound 0.1 µM",0.62%
same,"viability, T/C","second compound 10 µM, first compound 0.316 µM",6.02%
same,"viability, T/C","second compound 10 µM, first compound 1 µM",4.41%
